Molecular target: Recombinant N-terminal GST tag full-length human HDAC11 (Homo sapiens (Human), UniProt Q96DB2)
Experiment: Probe binding HDAC11 assay, time resolved fluorescence (TRF)
Settings: read-out: HDAC11 IC50 Range
Method: The probe binding HDAC11 assay was performed using a time resolved fluorescence (TRF) assay format. Recombinant N-terminal GST tag full-length human HDAC11 was expressed and purified from baculovirus in Sf9 insect cells (SignalChem, # H93-30G-1000). Each assay was performed in 1536 black well microplates (Corning, #3936) in a final volume of 8 μL in assay buffer containing 50 mM HEPES (pH 7.5), 50 mM KCl, 50 mM NaCl, 0.5 mM GSH (L-Glutathione reduced, Sigma #G4251), 0.03% BGG (0.22 μM filtered, Sigma, #G7516-25G), and 0.01% Triton X-100 (Sigma, #T9284-10L). 100 nL of 10-point, 3-fold serial dilution in DMSO was pre-dispensed into respective wells of 1536 assay plates for a final test concentration range of 25 μM to 1.3 nM respectively. The final concentration in the assay of HDAC11 and probe (a fluorescein labeled HDAC 11 inhibitor) was 2.5 nM and 20 nM respectively. 4 μL of 2× probe and 2× anti-GST Terbium (Cisbio, #61GSTXLB) was added to assay plates followed by 4 μL of 2×HDAC11. Plates were incubated for 16 hours at room temperature before time resolved fluorescence was read on the Envision (Excitation at 340 nm, and Emission at 485 nm and 535 nm, Perkin Elmer).
Data from HDAC11 Assays were reported as percent inhibition (inh) compared with control wells based on the following equation: % inh=1−((FLU−AveLow)/(AveHigh−AveLow)) where FLU=measured time resolved fluorescence. AveLow=average time resolved fluorescence of no enzyme control (n=32). AveHigh=average time resolved fluorescence of DMSO control (n=32). IC50 values were determined by curve fitting of the standard 4 parameter logistic fitting algorithm included in the Activity Base software package: IDBS XE Designer Model205. Data is fitted using the Levenburg Marquardt algorithm.

Sequence of Recombinant N-terminal GST tag full-length human HDAC11 (Q96DB2 whole entry): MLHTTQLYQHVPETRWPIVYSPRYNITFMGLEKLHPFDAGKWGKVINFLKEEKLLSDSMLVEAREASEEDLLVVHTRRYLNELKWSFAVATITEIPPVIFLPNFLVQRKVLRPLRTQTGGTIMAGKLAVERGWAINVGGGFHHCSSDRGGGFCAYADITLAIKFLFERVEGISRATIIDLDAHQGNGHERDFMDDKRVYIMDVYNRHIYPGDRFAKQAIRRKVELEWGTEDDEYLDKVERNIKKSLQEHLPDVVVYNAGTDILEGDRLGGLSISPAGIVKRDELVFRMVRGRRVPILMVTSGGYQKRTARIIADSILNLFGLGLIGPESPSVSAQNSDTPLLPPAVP

SMILES | IC50 [µM]
NCCCCCn1c(Nc2cccc(C(=O)NO)c2)nc2cc(Cl)c(F)cc21 [Example 22-2, 3-((1-(5-aminopentyl)-5-chloro-6-fluoro-1H-benzo[d]imidazol-2-yl)amino)-N-hydroxybenzamide] | < 0.5
O=C(NO)c1cccc(Nc2nc3cc(-c4ccncc4)c(C(F)(F)F)cc3[nH]2)c1 [Example 36-3, N-hydroxy-3-((5-(pyridin-4-yl)-6-(trifluoromethyl)-1H-benzo[d]imidazol-2-yl)amino)benzamide] | < 0.5
O=C(NO)c1cccc(Nc2nc3cc(Br)c(C(F)(F)F)cc3[nH]2)c1 [Example 33-11, 3-((5-bromo-6-(trifluoromethyl)-1H-benzo[d]imidazol-2-yl)amino)-N-hydroxybenzamide] | < 0.5
Cc1cc2nc(Nc3cccc(C(=O)NO)c3)[nH]c2cc1C [Example 23-4, 3-((5,6-dimethyl-1H-benzo[d]imidazol-2-yl)amino)-N-hydroxybenzamide] | < 0.5
CC(C)n1c(Nc2cccc(C(=O)NO)c2)nc2cc(C#N)c(C(F)(F)F)cc21 [Example 15-1, 3-(5-cyano-1-isopropyl-6-(trifluoromethyl)-1H-benzo[d]imidazol-2-ylamino)-N-hydroxybenzamide] | < 0.5
COc1cc2nc(Nc3cccc(C(=O)NO)c3)[nH]c2cc1OC [Example 33-13, 3-((5,6-dimethoxy-1H-benzo[d]imidazol-2-yl)amino)-N-hydroxybenzamide] | > 1
O=C(NO)c1cccc(Nc2nc3cc(Cl)c(Cl)cc3o2)n1 [Example 31-1, 6-((5,6-dichlorobenzo[d]oxazol-2-yl)amino)-N-hydroxypicolinamide] | < 0.5
Cn1c(Nc2cccc(C(=O)NO)c2)nc2cc(Cl)c(Cl)cc21 [Example 13-1, 3-(5,6-dichloro-1-methyl-1H-benzo[d]imidazol-2-ylamino)-N-hydroxybenzamide] | < 0.5
CN(c1cccc(C(=O)NOC(=O)NCc2ccccc2)c1)c1nc2cc(C#N)c(C(F)(F)F)cc2[nH]1 [Example 37-2, N-((benzylcarbamoyl)oxy)-3-((5-cyano-6-(trifluoromethyl)-1H-benzo[d]imidazol-2-yl)(methyl)amino)benzamide] | > 1
O=C(NO)c1cccc(Nc2nc3cc(Cl)c(Cl)cc3o2)c1F [Example 4-2, 3-((5,6-dichlorobenzo[d]oxazol-2-yl)amino)-2-fluoro-N-hydroxybenzamide] | < 0.5
COCCn1c(Nc2cccc(C(=O)NO)c2)nc2cccc(OC)c21 [Example 24-2, N-hydroxy-3-((7-methoxy-1-(2-methoxyethyl)-1H-benzo[d]imidazol-2-yl)amino)benzamide] | > 1
O=C(NO)c1cccc(Nc2nc3cc(C(F)(F)F)c(-c4cccc(O)c4)cc3[nH]2)c1 [Example 36-10, N-hydroxy-3-((6-(3-hydroxyphenyl)-5-(trifluoromethyl)-1H-benzo[d]imidazol-2-yl)amino)benzamide] | < 0.5
COCCN(c1cccc(C(=O)NO)c1)c1nc2ccccc2[nH]1 [Example 25-1, 3-((1H-benzo[d]imidazol-2-yl)(2-methoxyethyl)amino)-N-hydroxybenzamide] | > 1
N#Cc1cc2oc(Nc3cccc(C(=O)NO)c3)nc2cc1C(F)(F)F [Example 2-1, 3-(6-cyano-5-(trifluoromethyl)benzo[d]oxazol-2-ylamino)-N-hydroxybenzamide] | < 0.5
O=C(NO)c1ccnc(Nc2nc3cc(Cl)c(Cl)cc3o2)n1 [Example 4-8, 2-((5,6-dichlorobenzo[d]oxazol-2-yl)amino)-N-hydroxypyrimidine-4-carboxamide] | > 1
O=C(NO)c1cncc(Nc2nc3cc(Cl)c(Cl)cc3o2)c1 [Example 4-5, 5-((5,6-dichlorobenzo[d]oxazol-2-yl)amino)-N-hydroxynicotinamide] | < 0.5
COCc1ccc(-c2cc3[nH]c(Nc4cccc(C(=O)NO)c4)nc3cc2C(F)(F)F)cc1 [Example 36-7, N-hydroxy-3-((6-(4-(methoxymethyl)phenyl)-5-(trifluoromethyl)-1H-benzo[d]imidazol-2-yl)amino)benzamide] | < 0.5
O=C(NO)c1cccc(Nc2nc3cc(Cl)c(Cl)cc3s2)c1 [Example 5-1, 3-(5,6-dichlorobenzo[d]thiazol-2-ylamino)-N-hydroxybenzamide 2,2,2-trifluoroacetate] | < 0.5

SMILES | IC50 [µM]
O=C(NO)c1ccc(F)c(Nc2nc3cc(Cl)c(Cl)cc3o2)c1 [Example 4-3, 3-((5,6-dichlorobenzo[d]oxazol-2-yl)amino)-4-fluoro-N-hydroxybenzamide] | < 0.5
CS(=O)(=O)c1cc2nc(Nc3cccc(C(=O)NO)c3)[nH]c2cc1C#N [Example 6-1, 3-(5-cyano-6-(methylsulfonyl)-1H-benzo[d]imidazol-2-ylamino)-N-hydroxybenzamide] | 0.5 to 1
O=C(NO)c1cccc(Nc2nc3ncccc3o2)c1 [Example 32-1, N-hydroxy-3-(oxazolo[4,5-b]pyridin-2-ylamino)benzamide] | > 1
CN(c1cccc(C(=O)NO)c1)c1nc2cc(C#N)c(C(F)(F)F)cc2[nH]1 [Example 9-1, 3-((5-cyano-6-(trifluoromethyl)-1H-benzo[d]imidazol-2-yl)(methyl)amino)-N-hydroxybenzamide] | < 0.5
CC(C)n1c(Nc2cccc(C(=O)NO)c2)nc2cc(Cl)c(Cl)cc21 [Example 17-1, 3-(5,6-dichloro-1-isopropyl-1H-benzo[d]imidazol-2-ylamino)-N-hydroxybenzamide] | < 0.5
O=C(NO)c1cc(Nc2nc3cc(Cl)c(Cl)cc3o2)ccn1 [Example 4-6, 4-((5,6-dichlorobenzo[d]oxazol-2-yl)amino)-N-hydroxypicolinamide] | < 0.5
NCCCCCn1c(Nc2cccc(C(=O)NO)c2)nc2cc(Cl)c(Cl)cc21 [Example 22-1, 3-((1-(5-aminopentyl)-5,6-dichloro-1H-benzo[d]imidazol-2-yl)amino)-N-hydroxybenzamide] | < 0.5
O=C(NO)c1cccc(Nc2nc3cc(C(F)(F)F)c(-c4ccccc4)cc3o2)c1 [Example 3-1, N-hydroxy-3-(6-phenyl-5-(trifluoromethyl)benzo[d]oxazol-2-ylamino)benzamide] | < 0.5
NS(=O)(=O)c1ccc2[nH]c(Nc3cccc(C(=O)NO)c3)nc2c1 [Example 33-24, N-hydroxy-3-((5-sulfamoyl-1H-benzo[d]imidazol-2-yl)amino)benzamide] | > 1
O=C(NO)c1cccc(Nc2nc3cc(C(F)(F)F)c(-c4cc(F)ccc4CO)cc3[nH]2)c1 [Example 36-15, 3-((6-(5-fluoro-2-(hydroxymethyl)phenyl)-5-(trifluoromethyl)-1H-benzo[d]imidazol-2-yl)amino)-N-hydroxybenzamide] | < 0.5
O=C(NO)c1cccc(Nc2nc3cc(C(F)(F)F)c(-c4ccc5ncccc5c4)cc3[nH]2)c1 [Example 36-8, N-hydroxy-3-((6-(quinolin-6-yl)-5-(trifluoromethyl)-1H-benzo[d]imidazol-2-yl)amino)benzamide] | < 0.5
O=C(NO)c1cccc(Nc2nc3cc([N+](=O)[O-])ccc3[nH]2)c1 [Example 33-21, N-hydroxy-3-((5-nitro-1H-benzo[d]imidazol-2-yl)amino)benzamide] | 0.5 to 1
O=C(NO)c1cccc(Nc2nc3cc(Cl)c(Cl)cc3o2)c1 [Example 1-1, 3-(5,6-dichlorobenzo[d]oxazol-2-ylamino)-N-hydroxybenzamide] | < 0.5
O=C(NO)c1cccc(Nc2nc3nccnc3[nH]2)c1 [Example 29-1, 3-((1H-imidazo[4,5-b]pyrazin-2-yl)amino)-N-hydroxybenzamide] | > 1
CN(C)C(=O)c1cccc(-c2cc3[nH]c(Nc4cccc(C(=O)NO)c4)nc3cc2C(F)(F)F)c1 [Example 36-18, 3-(2-((3-(hydroxycarbamoyl)phenyl)amino)-5-(trifluoromethyl)-1H-benzo[d]imidazol-6-yl)-N,N-dimethylbenzamide] | < 0.5
O=C(NO)c1cccc(Nc2nc3cc(C(F)(F)F)c(-c4cccc(C(=O)N5CCOCC5)c4)cc3[nH]2)c1 [Example 36-14, N-hydroxy-3-((6-(3-(morpholine-4-carbonyl)phenyl)-5-(trifluoromethyl)-1H-benzo[d]imidazol-2-yl)amino)benzamide] | < 0.5
CN(C)C(=O)c1ccc(-c2cc3[nH]c(Nc4cccc(C(=O)NO)c4)nc3cc2C(F)(F)F)cc1 [Example 36-6, 4-(2-((3-(hydroxycarbamoyl)phenyl)amino)-5-(trifluoromethyl)-1H-benzo[d]imidazol-6-yl)-N,N-dimethylbenzamide] | < 0.5
O=C(NO)c1cccc(Nc2nc3cc4c(cc3[nH]2)OCCCO4)c1 [Example 33-8, 3-((7,8-dihydro-1H,6H-[1,4]dioxepino[2′,3′:4,5]benzo[1,2-d]imidazol-2-yl)amino)-N-hydroxybenzamide] | > 1

— patent US10508088B2, “Methods using HDAC11 inhibitors” (FORMA Therapeutics, Inc., priority 2016, dated 2019)
